Laboratory results from PMC4226840, “An open-label study to determine the maximum tolerated dose of the multitargeted tyrosine kinase inhibitor CEP-11981 in patients with advanced cancer” (Investigational New Drugs, 2014).

Experiments:
[1] = tested on: advanced, relapsed/refractory solid tumors; assay: Tumor response (RECIST) in phase I patients; type: in vivo, human
Source text: The primary measures were MTD and DLTs. MTD was defined as the highest dose at which one-third or fewer of patients in a cohort experienced a DLT, which included grade ≥ 2 proteinuria, grade ≥ 3 nonhematologic toxicity (excluding hypertension and pain), grade ≥ 3 thrombocytopenia with bleeding, or grade 4 hematologic toxicity that was not clearly due to progressive cancer. Secondary measures included the pharmacokinetics of CEP-11981 after a single dose and multiple doses, the pharmacokinetic-pharmacodynamic profile of CEP-11981, safety, and preliminary efficacy. The efficacy endpoint was the proportion of patients who achieved complete or partial response on study (minimum of 6 weeks) according to Response Evaluation Criteria in Solid Tumors (RECIST) guidelines.

Aurora A = tested on: Aurora A; parameters: method as in PMID 22148921; conditions: cited from earlier work
[2] = Phase I safety: adverse events (CTCAE v3.0)
Procedure: Adverse events were recorded and graded according to the Common Terminology Criteria for Adverse Events, version 3.0.
Physical examinations, urinalysis, ECG, and laboratory evaluations (including serum chemistry and hematology) were performed at screening and on days 1, 2, 8, 15, 22, and 29 of cycle 1; on days 1, 15, and 29 of subsequent cycles; and at the end-of-treatment follow-up visit (14 days after the last dose). Adverse events were evaluated on days 2, 8, 15, and 22 of cycle 1; on days 1, 15, and 29 of every subsequent cycle; and at the end-of-treatment follow-up visit.

VEGFR-2 = tested on: VEGFR-2; parameters: method as in PMID 22148921; conditions: in vitro; cited from earlier work
VEGFR-2/KDR = assay: Ex vivo bioassay of cellular VEGFR-2/KDR kinase inhibition with patient plasma in TrkA-VEGFR-2/KDR chimeric PAE cells; type: cell-based
Procedure: Pharmacokinetic parameters calculated after a single dose of CEP-11981 included area under the plasma drug concentration versus time curve (AUC) from zero to infinity (AUC0-∞), to the last measurable concentration (AUC0-t), and to 24 h (AUC0–24); maximum observed plasma drug concentration (Cmax); time to maximum observed plasma drug concentration (Tmax); terminal elimination half-life (t½); and predicted accumulation ratio (Rpred), which was defined as AUC0–∞ (day 1, cycle 1)/AUC0–24 (day 1, cycle 1). Pharmacokinetic parameters calculated after multiple doses included AUC0-t, Cmax, Tmax, and t½, and observed accumulation ratio (Robs). Robs was defined as AUC for 1 dosing interval following multiple doses (AUCτ; day 15, cycle 1)/AUC0–24 (day 1, cycle 1). […] Pharmacodynamics was assessed by VEGFR-2/KDR inhibitory activity in response to CEP-11981 treatment.
The venous blood samples for pharmacokinetic analysis were collected on days 1 and 15 of dosing during cycle 1 immediately before dose administration and at 0.5, 1, 1.5, 2, 3, 4, 6, 8, 12 (this sample was optional and could be collected from 10 to 14 h), and 24 h postdose, as well as on days 8, 22, 29, and 43. The venous blood samples for pharmacokinetic-pharmacodynamic analysis were collected on days 1 and 15 of dosing during cycle 1 immediately before dose administration and at 1 h postdose, and on day 43. At each draw, 2 samples were obtained in 6-mL sodium heparinized vacutainers. Plasma was obtained and stored at −70 °C until shipment to the sponsor for analysis.
A bioassay with engineered chimeric porcine aortic endothelial (PAE) cell lines stably expressing a TrkA-VEGFR-2/KDR domain was used to evaluate human plasma-associated shifts in cellular IC50 for CEP-11981 inhibition of ligand-stimulated VEGFR-2/KDR phosphorylation. Plasma samples for the bioassay were obtained 1 h postdose and on days 1 and 15; they were collected from patients across cohorts.

proto-oncogene c-SRC = tested on: proto-oncogene c-SRC; parameters: method as in PMID 22148921; conditions: cited from earlier work
[3] = of 37 patients evaluated for tumor response

Sequence of VEGFR-2/KDR (P35968 786-1356 limits assumed): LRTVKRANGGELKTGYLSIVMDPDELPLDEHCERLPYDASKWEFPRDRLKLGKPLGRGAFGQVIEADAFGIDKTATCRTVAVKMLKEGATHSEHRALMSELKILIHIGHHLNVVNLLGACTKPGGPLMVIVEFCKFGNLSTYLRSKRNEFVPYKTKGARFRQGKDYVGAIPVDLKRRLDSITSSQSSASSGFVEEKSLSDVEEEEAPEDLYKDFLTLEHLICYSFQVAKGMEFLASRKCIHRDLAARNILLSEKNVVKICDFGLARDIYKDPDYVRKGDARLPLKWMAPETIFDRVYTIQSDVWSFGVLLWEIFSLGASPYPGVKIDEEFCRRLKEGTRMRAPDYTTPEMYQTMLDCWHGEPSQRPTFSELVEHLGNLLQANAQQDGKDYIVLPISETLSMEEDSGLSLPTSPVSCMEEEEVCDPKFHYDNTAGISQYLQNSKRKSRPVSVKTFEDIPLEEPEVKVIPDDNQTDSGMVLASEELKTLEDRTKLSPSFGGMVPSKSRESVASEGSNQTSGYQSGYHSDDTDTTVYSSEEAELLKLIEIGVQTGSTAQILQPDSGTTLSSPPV

11-(2-methylpropyl)-12,13-dihydro-2-methyl-8-(pyrimidin-2-ylamino)-4H-indazolo[5,4-a]pyrrolo[3,4-c]carbazol-4-one [CEP-11981]
Complete or partial response (RECIST) ([1]; all cohorts): no enrolled patients had complete or partial response
Frequency of stable disease ([1]; cohorts receiving ≤ 55.0 mg/m^2 (11 of 29 patients)): 37.9%
Frequency of stable disease ([1]; cohorts receiving ≥ 73.0 mg/m^2 (8 of 14 patients)): 57.1%
Patients with stable disease at ≥ 6 weeks ([1]; intent-to-treat population (19 of 43 patients)): 44%
Patients with disease progression [1, 3]: 18 patients
Patients with stable disease at ≥ 6 weeks [1, 3]: 51%
IC50 (Aurora A): 42 nM
Grade 3/4 adverse events ([2]; 3.0 mg/m^2 n = 3): • Abdominal pain • Arthralgia • Back pain
Grade 3/4 adverse events ([2]; 4.2 mg/m^2 n = 3): • Abdominal pain
Grade 3/4 adverse events ([2]; 5.9 mg/m^2 n = 5): • Hyperkalemia
Grade 3/4 adverse events ([2]; 19.7 mg/m^2 n = 3): • Back pain • Hypokalemia • Hyponatremia • Lumbar vertebral fracture
Grade 3/4 adverse events ([2]; 55.0 mg/m^2 n = 5): • Abdominal pain • Anxiety • Arthralgia • Back pain • Cellulitis • Constipation • Hypokalemia • Impaired healing • Musculo-skeletal pain • Peripheral edema • Scrotal edema • Somnolence
Grade 3/4 adverse events ([2]; 73.0 mg/m^2 n = 3): • Anemia • Leukopenia • Diarrhea • Decreased appetite • Musculo-skeletal pain • Neck pain • Headache • Pleural effusion
Grade 4 leukopenia ([2]; 126.6 mg/m^2 cohort): 1 patient
Grade 4 neutropenia ([2]; 126.6 mg/m^2 cohort): 1 patient
Grade 3/4 adverse events ([2]; 126.6 mg/m^2 n = 2, ^b treatment-related): • Neutropenia^b • ECG change
Grade 3/4 abdominal pain ([2]; across all groups): 7%
Grade 3/4 back pain ([2]; across all groups): 7%
Grade 3/4 lymphopenia ([2]; across all groups): 19%
Grade 3/4 neutropenia ([2]; across all groups): 7%
Patients with ECG changes ([2]; all cohorts): 2%
Patients with hypertension ([2]; all cohorts): 2%
Abdominal pain, any grade ([2]; all cohorts, N = 43): 30%
Back pain, any grade ([2]; all cohorts, N = 43): 28%
Constipation, any grade ([2]; all cohorts, N = 43): 28%
Deaths during the study ([2]; all cohorts, N = 43): No deaths occurred
Decreased appetite, any grade ([2]; all cohorts, N = 43): 33%
Diarrhea, any grade ([2]; all cohorts, N = 43): 33%
Dizziness, any grade ([2]; all cohorts, N = 43): 28%
Dyspnea, any grade ([2]; all cohorts, N = 43): 23%
Fatigue, any grade ([2]; all cohorts, N = 43): 51%
Headache, any grade ([2]; all cohorts, N = 43): 28%
Nausea, any grade ([2]; all cohorts, N = 43): 47%
Patients with adverse events possibly, probably, or definitely related to study drug ([2]; all cohorts, N = 43): 88.3%
Patients with grade 3 adverse events ([2]; all cohorts, N = 43): 32.6%
Patients with grade 3 or 4 adverse events ([2]; all cohorts, N = 43): 37%
Patients with grade 3 or 4 laboratory hematologic toxicities ([2]; all cohorts, N = 43): 18.6%
Patients with grade 4 adverse events ([2]; all cohorts, N = 43): 4.7%
Patients with ≥ 1 adverse event ([2]; all cohorts, N = 43): 43 patients
Serious adverse events ([2]; all cohorts, N = 43): 12 patients
Vomiting, any grade ([2]; all cohorts, N = 43): 28%
IC50 (VEGFR-2): 4 nM
Patients with quintile 5 ex vivo VEGFR-2/KDR inhibition (VEGFR-2/KDR; 97.4 mg/m^2): 3 of 5
Patients with quintile 5 ex vivo VEGFR-2/KDR inhibition (VEGFR-2/KDR; 126.6 mg/m^2): 1 of 1
Inhibition of VEGFR-2/KDR kinase (VEGFR-2/KDR; plasma from lower dose cohorts (3.0, 4.2, 5.9, 11.8, and 19.7 mg/m^2), normalized to predose baseline): Less than 50%
Normalized mean cellular VEGFR-2/KDR inhibition (VEGFR-2/KDR; plasma primarily from 73.0, 97.4, and 126.6 mg/m^2 cohorts (quintile 5)): ≥ 81%
IC50 (proto-oncogene c-SRC): 37 nM
